Assay results as given in PubChem BioAssay (NCI).
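Assay format: 96-well plates, 48-hour exposure. GI50: concentration for 50% inhibition of growth. TGI: concentration producing complete growth inhibition.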

Assays:
Assay in all cases: NCI tumour cell line growth inhibition, 48 h
SK-MEL-28 melanoma = system: SK-MEL-28 melanoma
MALME-3M melanoma = system: MALME-3M melanoma
SNB-78 CNS = system: SNB-78 CNS
HCT-116 colon = system: HCT-116 colon
SK-MEL-2 melanoma = system: SK-MEL-2 melanoma
M19-MEL melanoma = system: M19-MEL melanoma
M14 melanoma = system: M14 melanoma
UACC-257 melanoma = system: UACC-257 melanoma

SMILES	TGI (SK-MEL-28 melanoma)	TGI (MALME-3M melanoma)	TGI (SNB-78 CNS)	TGI (HCT-116 colon)	TGI (SK-MEL-2 melanoma)	TGI (M19-MEL melanoma)	TGI (M14 melanoma)	TGI (UACC-257 melanoma)	GI50 (SK-MEL-28 melanoma)	GI50 (MALME-3M melanoma)	GI50 (SNB-78 CNS)	GI50 (HCT-116 colon)	GI50 (SK-MEL-2 melanoma)	GI50 (M19-MEL melanoma)	GI50 (M14 melanoma)	GI50 (UACC-257 melanoma)
O=C1CSC(Cc2nc3ccccc3[nH]2)=N1	> 76.1 µM	18.4 µM	> 100 µM	27.6 µM	38.4 µM	> 59 µM	33.4 µM	> 90.7 µM								
O=[N+]([O-])c1ccc(-n2nnc(C3=NCCCN3)c2-c2ccc(Cl)cc2)cc1	> 100 µM	> 100 µM	> 100 µM	> 100 µM	> 100 µM	> 100 µM	> 100 µM	> 100 µM								
O=C(CCC/C(CC(=O)c1ccc(Br)cc1)=N\O)Nc1ccccc1	> 100 µM	> 100 µM	> 100 µM	> 100 µM	> 100 µM	> 100 µM	> 100 µM	> 100 µM								
COC(=O)C12C3C4C5(C(=O)OC)C(C1C35C(=O)N(C(C)C)C(C)C)C42C(=O)N(C(C)C)C(C)C (centres undefined)	> 50 µM	> 50 µM	> 50 µM	33.6 µM	> 50 µM	> 50 µM	> 50 µM	> 50 µM								
NC1CCCC[C@H]1N.N[C@@H]1CCCC[C@@H]1N.O=C(P(=O)([O-])[O-])P(=O)([O-])[O-].[Pt+4].[Pt+4]	> 100 µM	> 100 µM	> 100 µM	> 100 µM	> 100 µM	> 100 µM	> 100 µM	> 100 µM	> 100 µM	> 100 µM	> 100 µM	83.8 µM	> 100 µM	73 µM	> 100 µM	> 100 µM
COc1cc2c(cc1OCc1ccccc1)CNCC2	> 100 µM	> 100 µM	> 100 µM	> 100 µM	> 100 µM	> 100 µM	> 100 µM	> 100 µM								
CC(C)(C)C(=O)/C=C/c1ccc(Oc2ccccc2)cc1	> 100 µM	44.6 µM	75.7 µM	34.7 µM	37.9 µM	> 100 µM	34.5 µM	42.6 µM								
